What all share (format): binding
The target in one assay is T1, PTGER1 (Homo sapiens, UniProt P34995).
T1 construct: purchased Promega (in-house HiBiT-GPCR construct library, NanoBRET)
T1 sequence (P34995 1-402): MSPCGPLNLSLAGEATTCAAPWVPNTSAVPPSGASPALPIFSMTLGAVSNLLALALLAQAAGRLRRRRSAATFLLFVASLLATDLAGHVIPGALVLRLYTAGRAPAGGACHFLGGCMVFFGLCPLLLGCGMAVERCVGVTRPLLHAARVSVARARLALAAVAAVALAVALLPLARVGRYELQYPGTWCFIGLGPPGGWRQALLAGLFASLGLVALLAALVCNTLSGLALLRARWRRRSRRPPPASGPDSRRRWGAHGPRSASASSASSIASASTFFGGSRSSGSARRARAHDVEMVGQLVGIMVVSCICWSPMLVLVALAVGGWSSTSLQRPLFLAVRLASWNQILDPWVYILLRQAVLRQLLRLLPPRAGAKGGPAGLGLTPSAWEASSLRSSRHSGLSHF
The assay can be described thus: NanoBRET screen HiBiT-PTGER1 in HEK293. The procedure:
(§1) Each tracer candidate was screened across the entire library of HiBiT-GPCR constructs using NanoBRET as the detection modality. As depicted in Figure 4A, the specificity of interactions was evaluated through decrease in BRET due to competitive displacement of a bound tracer by excess parental compound. Each tracer was analyzed for binding to each HiBiT-GPCR fusion in the absence and in the presence of competing parental compound. Briefly, HEK293 cells were transfected with HiBiT-GPCR constructs diluted into promoterless DNA to reduce expression and maximize translocation to the cell surface. Each tracer candidate was then screened at concentrations of 1 μM and 0.1 μM across cells expressing these fusions. Cells were treated for 1.5 h with tracer either alone or in the presence of 20 μM competing parental compound (i.e., control). BRET was measured upon addition of purified LgBiT and subsequent complementation with HiBiT genetically fused to a GPCR. The specificity of interactions was assessed through a decrease in BRET signal due to competitive displacement of the bound tracer. To further gauge the robustness of these interactions, the fold response over the control (i.e., BRETtracer/BRETcontrol) was calculated. We chose a 1.5-fold response, which translates to ≥7-fold signal over noise as the minimal threshold required to score an interaction as positive. […]. Below we highlight the screening results obtained for our exemplary fluorescent tracers based on Clozapine, Amitriptyline and AZD1283.
(§2) HiBiT-GPCR DNA constructs were diluted in 10 mM Tris pH 8 to a final concentration of 0.01 μg/μL, arrayed in 96-well plates and stored at −20 °C. For transfection, HEK293 cells were suspended in Opti-MEM (without phenol red) supplemented with 2% fetal bovine serum (Seradigm) and 100 units/mL penicillin–streptomycin (Gibco) at a final concentration of 220,000 cells/mL and dispensed into white 96-well plates at 90 μL/well. Subsequent transfections and screens were carried using an Agilent Bravo Automated Liquid Handling Platform. First, the 96-well HiBiT DNA arrays were diluted 25-fold in Opti-MEM (without serum or phenol red) to a final concentration of 0.0004 μg/μL and 20 μL of the diluted DNAs were transferred into new 96-well plates. Next, promoterless carrier DNA (1 μg/μL) was diluted 25-fold (0.04 μg/μL) and then dispensed into the diluted arrays at 20 μL/well. Following brief mixing, Viafect transfection reagent (Promega) diluted 16-fold into Opti-MEM was dispensed into the plates at 40 μL/well. After mixing by pipetting, plates were incubated for 10 min on the pipetting station deck. The DNA-transfection reagent complexes were then added to plates containing cells. To facilitate the screen, 10 μL of DNA-transfection reagent complexes were added in duplicates to the top 4 and bottom 4 rows, resulting in two identical 48-well arrays per plate. Plates with transfected cells were incubated for 18–20 h at 37 °C/5% CO2. A screen of each tracer across the entire library using two different concentrations requires duplicate plates of transfected cells. Depending on the number of tracers being screened, transfections can be scaled up using the same ratios. The next day, for each tracer, four 20× screening solutions in tracer dilution buffer (Promega) were prepared: two duplicates at final concentration of 20 μM and two duplicates at a final concentration of 2 μM. A competing unmodified compound was added to one of each duplicate at a final concentration of 400 μM. The four resulting solutions were diluted 4-fold in Opti-MEM without serum or phenol red to generate 5× solutions (5 µM and 0.5 µM tracer +/− 100 μM competing compound). To screen the library, a BioTek MultiFlo FX liquid dispenser was used to dispense 22.5 µL of tracer solution to the top 4 rows and 22.5 µL tracer + competing compound solution to the 4 bottom rows. Plates were briefly mixed on an orbital shaker and incubated for 1.5 h at room temperature. […]
In general terms: Bioluminescence resonance energy transfer reports proximity on the nanometre scale.

In the next assay the target is T2, HRH3 (Homo sapiens, UniProt Q9Y5N1).
T2 construct: purchased Promega (in-house HiBiT-GPCR construct library, NanoBRET)
T2 sequence (Q9Y5N1 whole entry): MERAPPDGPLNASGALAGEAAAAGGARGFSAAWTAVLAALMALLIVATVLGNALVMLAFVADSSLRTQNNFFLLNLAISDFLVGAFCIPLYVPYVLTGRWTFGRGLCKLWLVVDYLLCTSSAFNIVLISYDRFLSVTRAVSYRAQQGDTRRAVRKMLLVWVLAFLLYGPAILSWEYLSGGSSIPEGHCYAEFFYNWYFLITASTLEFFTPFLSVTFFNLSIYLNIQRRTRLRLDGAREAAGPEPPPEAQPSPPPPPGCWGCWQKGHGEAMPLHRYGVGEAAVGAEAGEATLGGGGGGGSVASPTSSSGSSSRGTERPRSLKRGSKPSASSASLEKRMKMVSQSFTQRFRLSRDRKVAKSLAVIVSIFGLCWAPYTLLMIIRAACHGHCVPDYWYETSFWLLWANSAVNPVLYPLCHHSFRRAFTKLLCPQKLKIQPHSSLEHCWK
The assay can be described thus: NanoBRET screen HiBiT-HRH3 in HEK293. The procedure:
as §1, §2

Another assay deals with T3, FZD7 (Homo sapiens, UniProt O75084).
T3 construct: purchased Promega (in-house HiBiT-GPCR construct library, NanoBRET)
The assay is described as follows: NanoBRET screen HiBiT-FZD7 in HEK293. The procedure:
as §1, §2

Another assay addresses T4, ACKR3 (Homo sapiens, UniProt P25106).
T4 construct: purchased Promega (in-house HiBiT-GPCR construct library, NanoBRET)
The assay can be described thus: NanoBRET screen HiBiT-ACKR3 in HEK293. The procedure:
as §1, §2

The target in a further assay is T5, GRM2 (Homo sapiens, UniProt Q14416).
T5 construct: purchased Promega (in-house HiBiT-GPCR construct library, NanoBRET)
T5 sequence (Q14416 19-872): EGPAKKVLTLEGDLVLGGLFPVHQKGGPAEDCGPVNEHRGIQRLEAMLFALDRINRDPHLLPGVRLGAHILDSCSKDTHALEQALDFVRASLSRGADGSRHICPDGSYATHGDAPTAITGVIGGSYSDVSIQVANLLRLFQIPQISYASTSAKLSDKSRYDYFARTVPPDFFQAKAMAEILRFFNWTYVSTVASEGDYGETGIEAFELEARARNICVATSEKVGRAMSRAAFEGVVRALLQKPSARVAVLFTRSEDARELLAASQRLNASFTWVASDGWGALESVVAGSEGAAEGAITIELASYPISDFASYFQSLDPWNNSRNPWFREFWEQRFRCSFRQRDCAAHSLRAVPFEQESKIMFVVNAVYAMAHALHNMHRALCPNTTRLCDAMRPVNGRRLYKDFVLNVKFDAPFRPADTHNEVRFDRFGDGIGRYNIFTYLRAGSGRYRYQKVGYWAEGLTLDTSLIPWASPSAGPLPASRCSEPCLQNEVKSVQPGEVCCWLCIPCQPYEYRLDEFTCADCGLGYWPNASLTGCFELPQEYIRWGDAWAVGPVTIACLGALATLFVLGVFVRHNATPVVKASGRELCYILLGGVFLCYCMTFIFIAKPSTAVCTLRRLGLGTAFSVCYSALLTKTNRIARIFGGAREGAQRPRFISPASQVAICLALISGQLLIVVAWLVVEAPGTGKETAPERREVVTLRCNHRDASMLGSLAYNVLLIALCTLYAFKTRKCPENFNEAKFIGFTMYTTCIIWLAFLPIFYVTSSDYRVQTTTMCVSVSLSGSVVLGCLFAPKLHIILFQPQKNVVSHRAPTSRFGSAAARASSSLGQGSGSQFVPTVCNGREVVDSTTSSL
The assay is described as follows: NanoBRET screen HiBiT-GRM2 in HEK293. The procedure:
as §1, §2

The next assay addresses T6, LTB4R2 (Homo sapiens, UniProt Q9NPC1).
T6 construct: purchased Promega (in-house HiBiT-GPCR construct library, NanoBRET)
T6 sequence (Q9NPC1 1-358): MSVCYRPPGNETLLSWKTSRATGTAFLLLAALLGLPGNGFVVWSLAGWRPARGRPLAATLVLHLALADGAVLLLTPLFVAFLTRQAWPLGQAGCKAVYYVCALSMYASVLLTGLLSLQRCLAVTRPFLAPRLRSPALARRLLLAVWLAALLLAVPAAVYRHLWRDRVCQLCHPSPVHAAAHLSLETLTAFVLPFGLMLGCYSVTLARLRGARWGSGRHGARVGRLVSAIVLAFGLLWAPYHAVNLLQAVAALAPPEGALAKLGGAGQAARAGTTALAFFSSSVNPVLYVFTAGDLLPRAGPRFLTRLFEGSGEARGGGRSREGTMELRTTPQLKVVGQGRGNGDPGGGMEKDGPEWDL
The assay can be described thus: NanoBRET screen HiBiT-LTB4R2 in HEK293. The procedure:
as §1, §2

T4 sequence (P25106 whole entry): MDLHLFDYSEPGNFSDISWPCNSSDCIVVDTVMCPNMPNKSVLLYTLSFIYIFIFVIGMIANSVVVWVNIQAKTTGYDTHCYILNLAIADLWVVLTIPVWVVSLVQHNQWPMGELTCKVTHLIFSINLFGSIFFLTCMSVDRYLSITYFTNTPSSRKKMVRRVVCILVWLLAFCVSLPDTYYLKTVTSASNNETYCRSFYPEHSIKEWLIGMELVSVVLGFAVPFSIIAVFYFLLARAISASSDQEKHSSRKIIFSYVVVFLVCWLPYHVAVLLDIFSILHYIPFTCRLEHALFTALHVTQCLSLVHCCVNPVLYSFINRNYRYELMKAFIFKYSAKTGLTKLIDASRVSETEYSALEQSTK

On to `COc1ccc2c(n1)c(CCNC(C)=O)cn2CCNC(=O)CCc1ccc2n1[B-](F)(F)[N+]1=C(c3ccc[nH]3)C=CC1=C2` [Azamelatonin-1-NB590], for which the “NanoBRET Fold Response” value on PTGER1 (0.1μM tracer) was 1.20; at PTGER1 (1μM tracer) it was 0.95; at HRH3 (0.1μM tracer), 1.07; on HRH3 (1μM tracer) it was 1.07; at FZD7 (0.1μM tracer), 1.11; on FZD7 (1μM tracer) it was 1.11. The “NanoBRET Fold Response” value on ACKR3 (0.1μM tracer) came to 0.84; on ACKR3 (1μM tracer), 0.95; on GRM2 (0.1μM tracer) it was 1.19; on GRM2 (1μM tracer), 1.00; at LTB4R2 (0.1μM tracer) it was 1.02; on LTB4R2 (1μM tracer), 1.02.
Consider `CC(C)N(CC[C@H](c1ccccc1)c1cc(CCNC(=O)c2ccc(CNC(=O)CCc3ccc4n3[B-](F)(F)[N+]3=C(c5ccc[nH]5)C=CC3=C4)cc2)ccc1O)C(C)C` [Tolterodine-BZ-NB590], for which the “NanoBRET Fold Response” value is 1.03 at PTGER1 (PTGER1, tracer 0.1μM); 1.03 at PTGER1 (PTGER1, tracer 1μM); 1.16 at HRH3 (HRH3, tracer 0.1μM); 1.28 on HRH3 (HRH3, tracer 1μM); 1.04 on FZD7 (FZD7, tracer 0.1μM); 1.06 on FZD7 (FZD7, tracer 1μM). For the same molecule, the “NanoBRET Fold Response” value on ACKR3 (ACKR3, tracer 0.1μM) came out at 0.88; on ACKR3 (ACKR3, tracer 1μM), 0.96; on GRM2 (GRM2, tracer 0.1μM), 1.00; at GRM2 (GRM2, tracer 1μM), 0.15; on LTB4R2 (LTB4R2, tracer 0.1μM), 0.91; at LTB4R2 (LTB4R2, tracer 1μM), 0.95.
In the case of `O=C(CCc1ccc2n1[B-](F)(F)[N+]1=C(c3ccc[nH]3)C=CC1=C2)NCCOCCOCCNC(=O)OCCOCCN1CCN(C2=Nc3ccccc3Sc3ccccc32)CC1` [Quetiapine-a-2-NB590], the “NanoBRET Fold Response” value at PTGER1 (PTGER1, tracer 0.1μM) was 1.07; on PTGER1 (PTGER1, tracer 1μM) it was 1.05; at HRH3 (HRH3, tracer 0.1μM), 1.09; at HRH3 (HRH3, tracer 1μM), 0.98; at FZD7 (FZD7, tracer 0.1μM), 1.04; at FZD7 (FZD7, tracer 1μM), 0.91. Besides, the “NanoBRET Fold Response” value is 0.96 at ACKR3 (ACKR3, tracer 0.1μM); 0.96 on ACKR3 (ACKR3, tracer 1μM); 0.92 on GRM2 (GRM2, tracer 0.1μM); 1.06 on GRM2 (GRM2, tracer 1μM); 1.09 at LTB4R2 (LTB4R2, tracer 0.1μM); 1.04 on LTB4R2 (LTB4R2, tracer 1μM).
For `Cc1cc2c(s1)Nc1ccccc1N=C2N1CCN(CCCNC(=O)CCOCCOCCOCCOCCNC(=O)CCc2ccc3n2[B-](F)(F)[N+]2=C(c4ccc[nH]4)C=CC2=C3)CC1` [Olanzapine-a-2-NB590], the “NanoBRET Fold Response” value on PTGER1 (PTGER1, tracer 0.1μM) was 1.03; at PTGER1 (PTGER1, tracer 1μM), 1.04; on HRH3 (HRH3, tracer 0.1μM) it was 1.06; on HRH3 (HRH3, tracer 1μM), 1.16; at FZD7 (FZD7, tracer 0.1μM), 1.03; at FZD7 (FZD7, tracer 1μM), 0.95. Further, the “NanoBRET Fold Response” value was 0.94 on ACKR3 (ACKR3, tracer 0.1μM); 0.83 at ACKR3 (ACKR3, tracer 1μM); 1.00 at GRM2 (GRM2, tracer 0.1μM); 1.01 on GRM2 (GRM2, tracer 1μM); 0.97 on LTB4R2 (LTB4R2, tracer 0.1μM); 1.06 on LTB4R2 (LTB4R2, tracer 1μM).
Consider `O=C(CCc1ccc2n1[B-](F)(F)[N+]1=C(c3ccc[nH]3)C=CC1=C2)NCc1ccc(C(=O)NCCOCCOCCNCC(O)COc2cccc3ccccc23)cc1` (stereo not drawn) [Propranolol-3-NB590], for which the “NanoBRET Fold Response” value on PTGER1 (PTGER1, 0.1μM) is listed as 1.07; at PTGER1 (PTGER1, 1μM) it was 1.06; on HRH3 (HRH3, 0.1μM), 0.97; on HRH3 (HRH3, 1μM) it was 1.00; at FZD7 (FZD7, 0.1μM), 1.01; at FZD7 (FZD7, 1μM) it was 1.04. For the same molecule, the “NanoBRET Fold Response” value at ACKR3 (ACKR3, 0.1μM) is reported as 1.04; on ACKR3 (ACKR3, 1μM), 1.08; at GRM2 (GRM2, 0.1μM) it was 0.94; at GRM2 (GRM2, 1μM), 1.05; on LTB4R2 (LTB4R2, 0.1μM) it was 1.01; on LTB4R2 (LTB4R2, 1μM), 0.96.
On to `CN(CCC=C1c2ccccc2CCc2ccccc21)C(=O)CCOCCOCCOCCOCCNC(=O)CCc1ccc2n1[B-](F)(F)[N+]1=C(c3ccc[nH]3)C=CC1=C2` [Amitriptyline-e-2-NB590], for which the “NanoBRET Fold Response” value on HRH3 (tracer at 1μM) is listed as 0.95; at FZD7 (tracer at 1μM) it was 1.02; on ACKR3 (tracer at 1μM) it was 0.94; at LTB4R2 (tracer at 1μM) it was 1.06.
On to `CN(C)CCC=C1c2ccccc2CCc2ccc(C(=O)NCCNC(=O)CCOCCOCCOCCOCCNC(=O)CCc3ccc4n3[B-](F)(F)[N+]3=C(c5ccc[nH]5)C=CC3=C4)cc21` [Amitriptyline-a-2-NB590], for which the “NanoBRET Fold Response” value is listed as 1.01 at HRH3 (tracer at 0.1μM); 0.94 at HRH3 (tracer at 1μM); 0.89 on FZD7 (tracer at 0.1μM); 0.97 on FZD7 (tracer at 1μM); 1.15 on ACKR3 (tracer at 0.1μM); 0.99 at ACKR3 (tracer at 1μM). The figures for the “NanoBRET Fold Response” value on LTB4R2 (tracer at 0.1μM) and at LTB4R2 (tracer at 1μM) were 0.97 and 1.08, respectively.

These data come from article PMC8151276, “An Integrated Approach toward NanoBRET Tracers for Analysis of GPCR Ligand Engagement” (Molecules, 2021).
